{
  "source": "paper PMC2567432",
  "about": "(PLoS ONE, 2008)",
  "key": {"[1]": {"test_system": "LDH", "assay": "LDH activity measurement, interference check", "format": "biochemical", "conditions": "spectrophotometric, 340 nm", "description": "(§1) LDH activity was spectrophotometrically assayed in the cytosolic extract or in the of cell cultures by adding aliquots to 1 ml reaction buffer (50 mM Na2HPO4, pH 7.0, 0.15 mM NADH, and 0.3 mM pyruvate). Enzyme activity was recorded at 340 nm."}, "[2]": {"test_system": "1321N1 cells", "assay": "Cell vitality by trypan blue exclusion", "format": "cell-based", "conditions": "50 µM, 6-h incubation; control 95.6%±2.5%", "source_text": "(B) Cell vitality as assayed by the trypan blue exclusion test. Data represent the mean±S.D. of independent experiments (n = 6)."}, "[3]": {"test_system": "prostate cancer PC-3 cells", "assay": "Cell proliferation WST-1 assay, PC-3", "format": "cell-based", "description": "(§2) Figure 3 Growth inhibition of different tumor cell lines by polyphenols. […] Following 24-h incubation, cell proliferation was evaluated using the WST-1 assay.\n(§3) Tumor cells were cultured in RPMI medium containing 10% fetal calf serum (RPMI-FCS) (PC-3, JIMT-1, MDA-MD 231) or in DMEM-FCS (astrocytoma 1321N1 cells) containing penicillin/streptomycin (100 U penicillin/ml; 100 µg streptomycin/ml) at 37°C/5% CO2. Cytosolic protein extracts of tumor cells were prepared using extraction buffer composed of 25 mM Tris, 2 mM EDTA, 10% Glycerol, 1% Triton ×100, 2 mM DTT, 1mM PMSF, pH. 7.0 containing 0.3% protease inhibitor cocktail. Protein content was determined according to Bradford. Specific activity of enzymes analyzed in cell extracts was expressed as U/mg protein.\n(§4) Cell proliferation/vitality of tumor cells (96-well plates; 5000 cells/well) and primary human hepatocytes (24-well plates; 0.25×10^6 cells/well) was assayed using the WST-1 assay according to manufacturer's instructions. Trypan blue exclusion was performed by staining cells with 0.4% aqueous trypan blue solution according to the manufacturer's instructions."}, "[4]": {"test_system": "IL-1β release from LPS-stimulated blood cells", "assay": "Whole blood assay, LPS-induced IL-1β release (cytometric bead array)", "format": "cell-based", "conditions": "Homo sapiens; heparinized whole blood, LPS 10 ng/ml, 6 h, 37°C", "description": "Figure 2 Effect of polyphenols on IL-1β release from LPS-stimulated blood cells. Heparinized whole blood was stimulated by LPS in the absence or presence of polyphenols at increasing concentrations and incubated for 6 h at 37°C with 5% CO2. (A) Released IL-1β as measured in cell supernatants. Samples without additives but LPS were set at 100%. (B) The calculated […] values of the respective polyphenols. Data represent mean±S.D. of independent experiments (n = 6).\nWhole blood assay was performed as previously described. Accordingly, LPS (10 ng/ml), test substances and 200 µl heparinized human blood of healthy donors, obtained from the blood bank of the University of Leipzig, were co-incubated with serum-free medium (RPMI-SF, 1 ml final volume) in 24-well culture plates for 6 h at 37°C with 5% CO2. Samples were removed, centrifuged at 2000×g for 10 min and supernatants were stored at −20°C until assaying for inflammatory cytokines.\nAssessment of cytokine levels in supernatants of human blood cell cultures was accomplished using Cytometric Bead Array (CBA™, BD Biosciences, San Jose, U.S.A). The procedure was carried out according to the manufacturer's instruction. Fluorescence measurement and analysis were performed using a FACSCalibur and the CellQuest software (BD Biosciences)."}, "[5]": {"test_system": "breast cancer JIMT-1 cells", "assay": "Cell proliferation WST-1 assay, JIMT-1", "format": "cell-based, human", "description": "as §2, §3, §4"}, "[6]": {"test_system": "brain astrocytoma 1321N1 cells", "assay": "Cell proliferation WST-1 assay, 1321N1", "format": "cell-based", "description": "as §2, §3, §4"}, "[7]": {"test_system": "LDH in JIMT-1 cells", "assay": "LDH activity in cytosolic extract of treated cells", "format": "cell-based, human", "conditions": "JIMT-1, 24 h", "description": "Cells were harvested and the specific activity of Glo1 and LDH was determined in the cytosolic extract. (B) Semi-quantitative analysis of protein content as performed by Western blot using specific antibodies against β-actin and Glo1. The blot was developed by chemoluminescense detection. […] Data represent the mean±S.D. of independent experiments (n = 6).\nas §1"}, "[8]": {"test_system": "JIMT-1 cells", "assay": "Glutathione (GSH) level in cytosolic extract, JIMT-1", "format": "cell-based, human", "conditions": "JIMT-1, 50 µM, 24 h", "description": "(§5) Cells were harvested and GSH concentration was determined in the cytosolic extract. Data represent the mean±S.D. of independent experiments (n = 6).\n(§6) GSH was determined using DTNB method. Briefly, cytosolic extract of tumor cells were precipitated by 5% sulfosalicylic acid neutralization, aliquots were mixed with DTNB and absorbance was read at 412 nm against a standard solution of GSH."}, "[9]": {"test_system": "breast cancer MDA-MB-231 cells", "assay": "Cell proliferation WST-1 assay, MDA-MB-231", "format": "cell-based, human", "conditions": "MDA-MB-231, 24 h", "description": "as §2, §3, §4"}, "[10]": {"test_system": "1321N1 cells", "assay": "Glutathione (GSH) level in cytosolic extract, 1321N1", "format": "cell-based", "conditions": "1321N1, 50 µM, 24 h", "description": "as §5, §6"}, "[11]": {"test_system": "JIMT-1 cells", "assay": "Cellular ATP content (CellTiter-Glo), JIMT-1", "format": "cell-based, human", "conditions": "JIMT-1, 6 h; curcumin 0–100 µM, MGO 0–1000 µM", "description": "Cellular ATP content was determined using the CellTiter-Glo® Luminescent Cell Viability Assay. Data represent the mean±S.D. of independent experiments (n = 12).\nCell ATP content was determined by means of the CellTiter-Glo® Luminescent Cell Viability Assay according to the manufacturer's instructions (Promega, Madison, USA). […] After 6-h incubation, cells were mixed with test reagents and luminescence was read according to the manufacturer's instructions. A standard curve was prepared from ATP (1 µM to 10 nM) in medium."}, "[12]": {"test_system": "astrocytoma 1321N1 cells", "assay": "Apoptosis/necrosis by annexin V-FITC/PI staining, flow cytometry", "format": "cell-based", "conditions": "24 h", "description": "Apoptosis/necrosis was evaluated using annexin V-5-fluorescein isothiocyanate (FITC)/propidium iodine (PI) staining followed by flow cytometric analysis. […] The proportion of dead cells (a: annexin V-FITC^−/PI^+), late apoptotic/necrotic cells (b: annexin V-FITC^+/PI^+), non-apoptotic cells (c: annexin V-FITC^−/PI^−) and early apoptotic cells (d: annexin V-FITC^+/PI^−). (B) Results of 3 independent experiments. […] Data represent the mean±S.D. of three independent experiments.\nSamples were analyzed by flow cytometry using a FACSCalibur and the CellQuest software (BD Biosciences, San Jose, USA). Laser excitation wavelength was set at 488 nm. The green signal from annexin V-FITC was measured at 525 nm and the red signal from PI was measured at 620 nm. Annexin V^−/PI^− cells are viable; annexin V^+/PI^− cells are in early apoptosis, whereas annexin V^+/PI^+ cells are necrotic or in late apoptosis are […]"}},
  "data": [
    {"smiles": "COc1cc(C=CC(=O)CC(=O)C=Cc2ccc(O)c(OC)c2)ccc1O", "note": "[curcumin, 1,7-bis(4-hydroxy-3-methoxyphenyl)-1,6-heptadiene-3,5-dione]", "values": [
      {"measurement": "effect on LDH enzyme activity in the assay", "setting": "[1]", "result": "not affected"},
      {"measurement": "percentage of vital cells (trypan blue exclusion)", "setting": "[2]", "result": "89.5%±2.5%"},
      {"measurement": "effect on PC-3 cells at 100 µM", "setting": "[3]; 100 µM, 24 h, morphology lost, necrotic cell death", "result": "toxic effect"},
      {"measurement": "concentration giving strong anti-proliferative effects", "setting": "[3]; PC-3, 24 h, WST-1", "result": "above 50 µM"},
      {"measurement": "IC50", "setting": "[4]", "result": 7.9, "unit": "µM"},
      {"measurement": "inhibition at 50 µM", "setting": "[5]; Homo sapiens, JIMT-1, 50 µM, 24 h", "result": "~30", "unit": "%"},
      {"measurement": "concentration giving strong anti-proliferative effects", "setting": "[5]; JIMT-1, 24 h, WST-1", "result": "above 50 µM"},
      {"measurement": "concentration giving strong anti-proliferative effects", "setting": "[6]; 1321N1, 24 h, WST-1", "result": "above 50 µM"},
      {"measurement": "inhibition at 50 µM", "setting": "[6]; Homo sapiens, 1321N1, 50 µM, 24 h", "result": "~30", "unit": "%"},
      {"measurement": "LDH activity in cytosolic extract", "setting": "[7]", "result": "increased at higher curcumin concentrations"},
      {"measurement": "GSH diminished by", "setting": "[8]", "result": "approximately 20%"},
      {"measurement": "concentration giving strong anti-proliferative effects", "setting": "[9]", "result": "above 50 µM"},
      {"measurement": "GSH diminished by", "setting": "[10]", "result": "approximately 20%"},
      {"measurement": "cellular ATP content", "setting": "[11]", "result": "decreased cellular ATP in a concentration-dependent manner"},
      {"measurement": "early apoptotic cells (annexin V-FITC+/PI−)", "setting": "[12]; 10 µM", "result": 11.0, "unit": "%"},
      {"measurement": "late apoptotic/necrotic cells (annexin V-FITC+/PI+)", "setting": "[12]; 50 µM", "result": 98.2, "unit": "%"}
    ]}
  ]
}
